Data from patent US20120289501A1, “Benzene-fused 6-membered oxygen-containing heterocyclic derivatives of bicyclic heteroaryls” (NOVARTIS AG, priority 2009, published 2012).

Target: IGF1R (Homo sapiens, UniProt P08069)
Assay: Cellular IGF-1R assay: inhibition of IGF1R phosphorylation in transduced Hek293 cells, capture ELISA (MSD)
Type: cell-based
Parameters: Hek293 cells transduced with the corresponding receptors; expressed in transfected cells; host or cells: Hek293 (Hek293-IGF1R)
Description: In this assay the activity of the compounds of the invention against Insulin-like growth factor I (IGF-1) induced autophosphorylation of the IGF-IR is determined. The assay is conducted as follows: Compound-mediated inhibition of IGF1R and INSR phosphorylation in Hek293 cells transduced with the corresponding receptors is assessed in a capture ELISA format using the MSD (Meso Scale Discovery) platform. Briefly, 30′000 cells washed and diluted in starvation medium (DMEM high glucose supplemented with 0.1% BSA) are seeded in 90 μL per well into 96-well plates pre-coated with poly-D-lysine (0.1 mg/mL in PBS/0). After 24 h incubation at 37° C. and 5% CO2, dose-response effects are determined with 3-fold serial compound dilutions, starting at 10 μM. The final vehicle concentration is 0.1% DMSO in all wells. Following pre-incubation with compounds for 1 h, receptor phosphorylation is triggered by a 10 min exposure to 1.0 ng/μL IGF for Hek293-IGF1R cells, and 5.0 ng/μL insulin for Hek293-InsR cells. Cell lysis is achieved by addition of 80 μL MSD lysis buffer per aspirated well, incubation on ice for 20 min, and a freeze-thaw cycle. Target phosphorylation is then assessed by transferring volumes corresponding to approx. 6 μg Hek293-IGF1R or 0.6 μg Hek293-InsR lysates to MSD assay plates pre-coated with total-IGF1R or total-InsR Abs, respectively. After incubation for 2 h at rt, wells are exposed for 1 hr to a rabbit monoclonal antibody (CST #3024, 1:1000) detecting pIGF1R(Tyr1135/1136) as well as pINSR(Tyr1150/1151). Immune complexes are detected by a SULFO-Tag™-coupled anti-rabbit IgG antibody in the presence of 150 μL MSD read-buffer. Light emission at 620 nm triggered by application of electric current is recorded on a MSD SectorImager 6000. Acquired raw data (mean Ru-ECL units) are processed in an Excel analysis template. The plate blank (MSD lysis buffer) is subtracted from all data points. The effect of a particular test compound concentration on receptor phosphorylation is expressed relative to the window defined by ligand-stimulated vs unstimulated control cells (set as 100%). IC50 values [nM] are determined using 4-parametric curve-fitting (XLfit software, V4.3.2). Alternatively, the assay can be conducted with a slightly different format; Compound-mediated inhibition of IGF-1R and InsR phosphorylation in HEK293 cells overexpressing the corresponding receptors were assessed by quantitative Western blot using an Odyssey infrared imager as readout.
Compound-mediated inhibition of IGF1R and INSR phosphorylation in Hek293 cells transduced with the corresponding receptors is assessed in a capture ELISA format using the MSD (Meso Scale Discovery) platform. Briefly, 30′000 cells washed and diluted in starvation medium (DMEM high glucose supplemented with 0.1% BSA) are seeded in 90 μL per well into 96-well plates pre-coated with poly-D-lysine (0.1 mg/mL in PBS/O). After 24 h incubation at 37° C. and 5% CO2, dose-response effects are determined with 3-fold serial compound dilutions, starting at 10 μM. The final vehicle concentration is 0.1% DMSO in all wells. Following pre-incubation with compounds for 1 h, receptor phosphorylation is triggered by a 10 min exposure to 1.0 ng/μL IGF for Hek293-IGF1R cells, and 5.0 ng/μL insulin for Hek293-InsR cells. Cell lysis is achieved by addition of 80 μL MSD lysis buffer per aspirated well, incubation on ice for 20 min, and a freeze-thaw cycle. Target phosphorylation is then assessed by transferring volumes corresponding to approx. 6 μg Hek293-IGF1R or 0.6 μg Hek293-lnsR lysates to MSD assay plates pre-coated with total-IGF1R or total-lnsR Abs, respectively. After incubation for 2 h at rt, wells are exposed for 1 hr to a rabbit monoclonal antibody (CST #3024, 1:1000) detecting pIGF1R(Tyr1135/1136) as well as pINSR(Tyr1150/1151). Immune complexes are detected by a SULFO-Tag™-coupled anti-rabbit IgG antibody in the presence of 150 μL MSD read-buffer. […]

Sequence of IGF1R (P08069 31-1367): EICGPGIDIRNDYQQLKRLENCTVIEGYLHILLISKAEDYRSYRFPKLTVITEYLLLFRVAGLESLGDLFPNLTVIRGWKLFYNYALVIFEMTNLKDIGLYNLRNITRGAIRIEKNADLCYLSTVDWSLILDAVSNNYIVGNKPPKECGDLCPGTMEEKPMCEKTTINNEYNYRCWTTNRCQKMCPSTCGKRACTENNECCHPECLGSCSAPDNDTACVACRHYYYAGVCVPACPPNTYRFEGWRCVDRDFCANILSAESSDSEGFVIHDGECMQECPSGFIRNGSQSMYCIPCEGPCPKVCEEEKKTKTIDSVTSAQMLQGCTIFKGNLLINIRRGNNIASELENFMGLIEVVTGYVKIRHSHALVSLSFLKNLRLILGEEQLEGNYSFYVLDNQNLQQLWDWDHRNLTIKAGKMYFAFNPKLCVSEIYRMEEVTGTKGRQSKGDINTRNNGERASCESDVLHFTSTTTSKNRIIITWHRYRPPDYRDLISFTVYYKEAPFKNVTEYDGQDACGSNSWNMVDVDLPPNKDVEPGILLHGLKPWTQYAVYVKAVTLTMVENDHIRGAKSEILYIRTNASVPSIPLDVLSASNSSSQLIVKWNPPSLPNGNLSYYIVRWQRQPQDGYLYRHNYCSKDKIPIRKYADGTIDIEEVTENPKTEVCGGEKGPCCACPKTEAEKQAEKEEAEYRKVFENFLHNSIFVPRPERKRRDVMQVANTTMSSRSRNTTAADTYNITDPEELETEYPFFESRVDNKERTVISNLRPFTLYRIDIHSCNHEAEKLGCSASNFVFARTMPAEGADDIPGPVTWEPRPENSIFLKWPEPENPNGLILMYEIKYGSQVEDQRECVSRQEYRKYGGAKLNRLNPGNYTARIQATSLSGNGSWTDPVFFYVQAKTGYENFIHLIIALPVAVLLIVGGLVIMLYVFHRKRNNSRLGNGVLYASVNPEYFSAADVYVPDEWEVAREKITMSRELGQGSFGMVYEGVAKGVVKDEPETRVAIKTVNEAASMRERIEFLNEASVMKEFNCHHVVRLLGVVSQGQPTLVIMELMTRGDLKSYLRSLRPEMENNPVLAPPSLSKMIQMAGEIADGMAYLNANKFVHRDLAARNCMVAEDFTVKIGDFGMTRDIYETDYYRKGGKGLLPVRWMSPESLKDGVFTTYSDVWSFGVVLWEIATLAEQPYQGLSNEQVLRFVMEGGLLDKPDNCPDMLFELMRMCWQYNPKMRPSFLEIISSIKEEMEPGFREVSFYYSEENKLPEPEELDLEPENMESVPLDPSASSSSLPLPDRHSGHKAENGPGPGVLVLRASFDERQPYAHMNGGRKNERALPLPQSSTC

Compound | IC50 [µM]
Nc1ncnc2c1c(-c1ccc3c(c1)OC(C1CCCO1)CC3)cn2[C@H]1CC[C@@H](N2CCS(=O)(=O)CC2)CC1 (mixture of isomers) [Example 64, (±)-7-[cis-4-(1,1-dioxo-1λ6-thiomorpholin-4-yl)-cyclohexyl]-5-[2-trans-(tetrahydro-furan-2-yl)chroman-7-yl]-7H-pyrrolo[2,3-d]pyrimidin-4-ylamine] | 0.059
Nc1ncnc2c1c(-c1ccc3c(c1)OC(C1CCCO1)CC3)cn2C1CC(CN2CC3CC2CS3(=O)=O)C1 (mixture of isomers) [Example 66, 7-[cis-3-((S,S)-2,2-dioxo-2λ6-thia-5-aza-bicyclo[2,2,1]hept-5-ylmethyl)-cyclobutyl]-5-[2-trans-(tetrahydro-furan-2-yl-chroman-7-yl)-7H-pyrrolo[2,3-d]pyrimidin-4-ylamine] | 0.024
Nc1ncnc2c1c(-c1ccc3c(c1)OC(c1ccccn1)CC3)cn2[C@H]1C[C@@H](CN2CCS(=O)(=O)CC2)C1 (mixture of isomers) [Example 54, (±)-7-(cis-3-(1,1-dioxo-thiomorpholin-4-ylmethyl)cyclobutyl)-5-(2-(pyridin-2-yl)chroman-7-yl)-7H-pyrrolo[2,3-d]pyrimidin-4-amine] | 0.045
Nc1ncnc2c1c(-c1ccc3c(c1)OC(C1CCCO1)CC3)cn2[C@H]1CC[C@@H](N2CCS(=O)(=O)CC2)CC1 (mixture of isomers) [Example 65, (±)-7-[cis-4-(1,1-dioxo-1λ6-thiomorpholin-4-yl)-cyclohexyl]-5-[2-cis-(tetrahydro-furan-2-yl)chroman-7-yl]-7H-pyrrolo[2,3-d]pyrimidin-4-ylamine] | 0.039
NC[C@H]1C[C@@H](n2cc(-c3ccc4c(c3)OC(c3ccccc3)CC4)c3c(N)ncnc32)C1 (mixture of isomers) [Example 13, (R,S)-7-(cis-3-Aminomethyl-cyclobutyl)-5-(2-phenyl-chroman-7-yl)-7H-pyrrolo[2,3-d]pyrimidin-4-ylamine] | 0.039
Nc1ncnc2c1c(-c1ccc3c(c1)OC(c1ccccc1)CC3)cn2[C@H]1C[C@@H](Cn2ccnc2CO)C1 (mixture of isomers) [Example 18, (R,S)-(1-{cis-3-[4-Amino-5-(2-phenyl-chroman-7-yl)-pyrrolo[2,3-d]pyrimidin-7-yl]-cyclobutylmethyl}-1H-imidazol-2-yl)-methanol] | 0.014
(R,S)—N-{cis-3-[4-Amino-5-(2-phenyl-chroman-7-yl)-pyrrolo[2,3-d]pyrimidin-7-yl]-cyclobutylmethyl}-methanesulfonamide [Example 17] | 0.024
Nc1ncnc2c1c(-c1ccc3c(c1)OC(C1CCCO1)CC3)cn2C1CC(CN2CCS(=O)(=O)CC2)C1 (single isomer, unassigned) [Example 30, (I)-7-[cis-3-(1,1-Dioxo-1-thiomorpholin-4-ylmethyl)-cyclobutyl]-5-[2-(tetrahydro-furan-2-yl)-chroman-7-yl]-7H-pyrrolo[2,3-d]pyrimidin-4-ylamine] | 0.004 to 0.005
Nc1ncnc2c1c(-c1ccc3c(c1)O[C@@H](c1ccccc1)CC3)cn2[C@H]1C[C@@H](CO)C1 [Example 12, {cis-3-[4-Amino-5-((R)-2-phenyl-chroman-7-yl)-pyrrolo[2,3-d]pyrimidin-7-yl]-cyclobutyl}-methanol] | 0.055
Nc1ncnc2c1c(-c1ccc3c(c1)OC(C1CCCO1)CC3)cn2C1CC(O)(CO)C1 (single isomer, unassigned) [Example 32, (I)-(E)-3-{4-Amino-5-[2-(tetrahydro-furan-2-yl)-chroman-7-yl]-pyrrolo[2,3-d]pyrimidin-7-yl}-1-hydroxymethyl-cyclobutanol] | 0.183
Nc1ncnc2c1c(-c1ccc3c(c1)OC(c1ccccc1)=CC3)cn2[C@H]1C[C@@H](CN2CCS(=O)(=O)CC2)C1 [Example 20, 7-[cis-3-(1,1-Dioxo-1-thiomorpholin-4-ylmethyl)-cyclobutyl]-5-(2-phenyl-4H-chromen-7-yl)-7H-pyrrolo[2,3-d]pyrimidin-4-ylamine] | 0.179
Nc1ncnc2c1c(-c1ccc3c(c1)OC(c1ccccc1)CC3)cn2[C@H]1C[C@@]2(CNC(=O)O2)C1 (some centres unmarked) [Example 44, (E)-2-[4-Amino-5-(2-phenyl-chroman-7-yl)-pyrrolo[2,3-d]pyrimidin-7-yl]-5-oxa-7-aza-spiro[3.4]octan-6-one] | 0.016
Nc1ncnc2c1c(-c1ccc3c(c1)OC(c1ccccc1)CC3)cn2[C@H]1C[C@@H](CN2CCS(=O)(=O)CC2)C1 (mixture of isomers) [Example 6, (R,S)-7-[cis-3-(1,1-Dioxo-thiomorpholin-4-ylmethyl)-cyclobutyl]-5-(2-phenyl-chroman-7-yl)-7H-pyrrolo[2,3-d]pyrimidin-4-ylamine] | 0.003
Nc1ncnc2c1c(-c1ccc3c(c1)OC(c1ccccc1)CC3)cn2[C@H]1C[C@@H](CN2CCNC(=O)C2)C1 (mixture of isomers) [Example 28, (R,S)-4-{3-[4-amino-5-(2-phenyl-chroman-7-yl)-pyrrolo[2,3-d]pyrimidin-7-yl]-cyclobutylmethyl}-piperazin-2-one] | 0.034
Nc1ncnc2c1c(-c1ccc3c(c1)OC(C1CCCO1)CC3)cn2C1CC(O)(CO)C1 (mixture of isomers) [Example 29, (E)-3-{4-Amino-5-[2-(tetrahydro-furan-2-yl)-chroman-7-yl]-pyrrolo[2,3-d]pyrimidin-7-yl}-1-hydroxymethyl-cyclobutanol] | 0.05
Nc1ncnc2c1c(-c1ccc3c(c1)OC(c1ccccc1)CC3)cn2[C@H]1C[C@](O)(CO)C1 (mixture of isomers) [Example 9, (R,S)—(Z)-3-[4-amino-5-(2-phenyl-chroman-7-yl)-pyrrolo[2,3-d]pyrimidin-7-yl]-1-hydroxymethyl-cyclobutanol] | 0.158
Nc1ncnc2c1c(-c1ccc3c(c1)OC(c1ccccn1)CC3)cn2[C@H]1C[C@@H](CN2CC[S+]([O-])CC2)C1 (mixture of isomers) [Example 63, (±)-7-(cis-3-(1-oxo-thiomorpholin-4-ylmethyl)cyclobutyl)-5-(2-(pyridin-2-yl)chroman-7-yl)-7H-pyrrolo[2,3-d]pyrimidin-4-amine] | 0.109
Nc1ncnc2c1c(-c1ccc3c(c1)O[C@H](c1ccccc1)CC3)cn2[C@H]1C[C@@H](CO)C1 [Example 11, {cis-3-[4-Amino-5-((S)-2-phenyl-chroman-7-yl)-pyrrolo[2,3-d]pyrimidin-7-yl]-cyclobutyl}-methanol] | 0.019
CCOCC1CCc2ccc(-c3cn([C@H]4C[C@@H](CN5CC[S+]([O-])CC5)C4)c4ncnc(N)c34)cc2O1 (relative stereo) [Example 50, 5-(2-Ethoxymethyl-chroman-7-yl)-7-[cis-3-(1-oxo-thiomorpholin-4-ylmethyl)-cyclobutyl]-7H-pyrrolo[2,3-d]pyrimidin-4-ylamine] | 0.036
Nc1ncnc2c1c(-c1ccc3c(c1)OC(c1ccccc1)CC3)cn2[C@H]1C[C@@](O)(Cn2cnnc2)C1 (some centres unmarked) [Example 47, (E)-3-[4-Amino-5-(2-phenyl-chroman-7-yl)-pyrrolo[2,3-d]pyrimidin-7-yl]-1-[1,2,4]triazol-4-ylmethylcyclobutanol] | 0.525
